Experimental data published in patent US11485742B2, “2-azaspiro[3.4]octane derivatives as M4 agonists” (NOVARTIS AG, priority 2019, dated 2022).
pEC50: −log10 of the molar value.

Molecular target: T1, Cloned human M1 receptor (CHRM1) (Homo sapiens, UniProt P11229)
T1 construct: expressed in transfected cells; host or cells: HEK293
T1 sequence (P11229 1-460): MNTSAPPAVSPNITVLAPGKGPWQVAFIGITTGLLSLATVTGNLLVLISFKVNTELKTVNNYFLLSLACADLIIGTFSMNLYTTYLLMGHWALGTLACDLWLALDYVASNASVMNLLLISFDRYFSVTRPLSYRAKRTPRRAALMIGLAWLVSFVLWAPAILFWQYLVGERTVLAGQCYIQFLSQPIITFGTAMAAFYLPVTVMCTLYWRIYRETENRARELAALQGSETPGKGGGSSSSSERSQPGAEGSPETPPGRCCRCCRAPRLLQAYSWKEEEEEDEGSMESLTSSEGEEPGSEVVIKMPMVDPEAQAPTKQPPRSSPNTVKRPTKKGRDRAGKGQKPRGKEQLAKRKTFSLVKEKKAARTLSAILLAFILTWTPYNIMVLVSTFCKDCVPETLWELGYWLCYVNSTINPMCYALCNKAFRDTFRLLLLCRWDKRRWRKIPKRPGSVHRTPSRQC
Assay: CHRM1 Ca++ Flux Assay (HEK293 M1 cells, agonist mode)
Assay type: cell-based
Settings: for M1 FDSS PA %: Percent Activity (PA); for pEC50: geometric mean if tested more than once, read-out: M1 FDSS EC50
Experimental: The above examples were characterized by measuring the intracellular mobilization of Ca^++ ions caused by signaling events mediated by the receptor. The Intra-cellular Calcium flux levels were captured by the highly sensitive Ca^++ indicator, Calcium Assay Kit (BD Biosciences; Catalog Number 640178. The fluorescent activity from all receptors were monitored by the fluorescent imager, FDSS 7000EX (Hamamatsu) over a span of 3 minutes. The change in Calcium flux was readily captured upon activation with the muscarinic orthosteric agonist, Carbachol.
Cloned human M1 receptor (CHRM1) was stably expressed in HEK293 cells and were grown and maintained in a monolayer culture with DMEM/High Glucose (Life Technologies) supplemented with 10% Fetal Bovine Serum, 1×Pen-Strep, and 0.5 mg/mL Geneticin in a humidified atmosphere (5% CO2) at 37° C. The cultures were grown to 90% confluency in T150 flasks (Corning) and washed with 1×DPBS and lifted with 0.05% Trypsin (Life Technologies). The cells were then spun (1K rpm, 3 minutes) and frozen using Recovery Cell Culture Freezing Media (Gibco Technologies). Cells were stored in liquid nitrogen and thawed a day before the assay.
Prior to the day of the assay, stable HEK293 M1 cells were thawed and plated on 384 well black walled clear bottom TC treated plates (Greiner Cat #781091) at 25K cells/well with DMEM/High Glucose supplemented with 10% FBS (Hyclone) Pen-Strep (Life Technologies) and kept overnight in a humidified atmosphere (5% CO2) at 37° C. The following day, cells were loaded with 20 uL Ca^++ dye (BD Biosciences) using Loading Buffer (HBSS +Ca/+Mg, 20 mM HEPES) and placed back in cell incubator for a minimum of 1 hour. The dye was replaced with 45 μL Assay Buffer (HBSS −Ca/−Mg, 20 mM HEPES) and kept at room temperature prior to running on cell imager. Compounds were prepared in Assay Buffer and 5 uL was added to the cells. The FDSS 7000EX (Hamamatsu) was used to acquire Ca++ traces for 3 minutes from cells treated with 11 point dose in triplicate in order to generate dose response curves in agonist mode. All compounds were serially diluted in DMSO then prepared in Assay Buffer for Ca^++ flux studies. The dose response curves were generated from the average of triplicate wells obtained from each data point and used a non-linear regression of four parameter dose response algorithm. The Percent Activity (PA) was measured to EC100 of Carbachol.
If an Example was tested more than once in an assay, then the values below represent the geometric mean of the results from each independent experiment.

SMILES | M1 FDSS PA % [%] | pEC50
Fc1ccc(OC[C@H]2CCO2)c(C2CCN([C@@H]3COC4(C3)CN(c3nncs3)C4)CC2)c1.O=C(O)C(F)(F)F (single isomer, unassigned) [Example 2C, (S)-7-(4-(5-fluoro-2-(((R)-oxetan-2-yl)methoxy)phenyl)piperidin-1-yl)-2-(1,3,4-thiadiazol-2-yl)-5-oxa-2-azaspiro[3.4]octane trifluoroacetate or (S)-7-(4-(5-fluoro-2-(((S)-oxetan-2-yl)methoxy)phenyl)piperidin-1-yl)-2-(1,3,4-thiadiazol-2-yl)-5-oxa-2-azaspiro[3.4]octane trifluoroacetate] | 75 | 5.94
Fc1ccc(OC[C@H]2CCO2)c(C2CCN([C@@H]3COC4(C3)CN(c3nncs3)C4)CC2)c1.O=C(O)C(F)(F)F (single isomer, unassigned) [Example 2D, (S)-7-(4-(5-fluoro-2-(((R)-oxetan-2-yl)methoxy)phenyl)piperidin-1-yl)-2-(1,3,4-thiadiazol-2-yl)-5-oxa-2-azaspiro[3.4]octane trifluoroacetate or (S)-7-(4-(5-fluoro-2-(((S)-oxetan-2-yl)methoxy)phenyl)piperidin-1-yl)-2-(1,3,4-thiadiazol-2-yl)-5-oxa-2-azaspiro[3.4]octane trifluoroacetate] | 72 | 6.54
OC[C@H]1C[C@H](Oc2ccc(F)cc2C2CCN([C@@H]3COC4(C3)CN(c3nnco3)C4)CC2)C1 (single isomer, unassigned) [Example 2HH, ((1S,3r)-3-(2-(1-((S)-2-(1,3,4-oxadiazol-2-yl)-5-oxa-2-azaspiro[3.4]octan-7-yl)piperidin-4-yl)-4-fluorophenoxy)cyclobutyl)methanol or ((1R,3s)-3-(2-(1-((S)-2-(1,3,4-oxadiazol-2-yl)-5-oxa-2-azaspiro[3.4]octan-7-yl)piperidin-4-yl)-4-fluorophenoxy)cyclobutyl)methanol] | 96 | 5.59
OC[C@H]1C[C@H](Oc2ccc(F)cc2C2CCN([C@@H]3COC4(C3)CN(c3nnco3)C4)CC2)C1 (single isomer, unassigned) [Example 2II, ((1S,3r)-3-(2-(1-((S)-2-(1,3,4-oxadiazol-2-yl)-5-oxa-2-azaspiro[3.4]octan-7-yl)piperidin-4-yl)-4-fluorophenoxy)cyclobutyl)methanol or ((1R,3s)-3-(2-(1-((S)-2-(1,3,4-oxadiazol-2-yl)-5-oxa-2-azaspiro[3.4]octan-7-yl)piperidin-4-yl)-4-fluorophenoxy)cyclobutyl)methanol] | 107 | 5.39
CC1(C)C[C@@H](Oc2ccc(F)cc2C2CCN([C@@H]3COC4(C3)CN(c3nnco3)C4)CC2)CO1 (single isomer, unassigned) [Example 2N, (S)-7-(4-(2-(((R)-5,5-dimethyltetrahydrofuran-3-yl)oxy)-5-fluorophenyl)piperidin-1-yl)-2-(1,3,4-oxadiazol-2-yl)-5-oxa-2-azaspiro[3.4]octane or (S)-7-(4-(2-(((S)-5,5-dimethyltetrahydrofuran-3-yl)oxy)-5-fluorophenyl)piperidin-1-yl)-2-(1,3,4-oxadiazol-2-yl)-5-oxa-2-azaspiro[3.4]octane] | 71 | 5.29
c1ccc([C@@H]2CCOC2)c(C2CCN([C@@H]3COC4(C3)CN(c3nnco3)C4)CC2)c1 (single isomer, unassigned) [Example 3A, (S)-2-(1,3,4-oxadiazol-2-yl)-7-(4-(2-((S)-tetrahydrofuran-3-yl)phenyl)piperidin-1-yl)-5-oxa-2-azaspiro[3.4]octane or (S)-2-(1,3,4-oxadiazol-2-yl)-7-(4-(2-((R)-tetrahydrofuran-3-yl)phenyl)piperidin-1-yl)-5-oxa-2-azaspiro[3.4]octane] | 85 | 5.95

The next lines start with the values.

M1 FDSS PA % [%] | pEC50 | SMILES
72 | 5.95 | CC1(C)C[C@@H](Oc2ccc(F)cc2C2CCN([C@@H]3COC4(C3)CN(c3nnco3)C4)CC2)CO1 (single isomer, unassigned) [Example 2O, (S)-7-(4-(2-(((R)-5,5-dimethyltetrahydrofuran-3-yl)oxy)-5-fluorophenyl)piperidin-1-yl)-2-(1,3,4-oxadiazol-2-yl)-5-oxa-2-azaspiro[3.4]octane or (S)-7-(4-(2-(((S)-5,5-dimethyltetrahydrofuran-3-yl)oxy)-5-fluorophenyl)piperidin-1-yl)-2-(1,3,4-oxadiazol-2-yl)-5-oxa-2-azaspiro[3.4]octane]
80 | 5.69 | Fc1ccc(O[C@H]2CCCOC2)c(C2CCN([C@@H]3COC4(C3)CN(c3nnco3)C4)CC2)c1 (single isomer, unassigned) [Example 2Q, (S)-7-(4-(5-fluoro-2-(((S)-tetrahydro-2H-pyran-3-yl)oxy)phenyl)piperidin-1-yl)-2-(1,3,4-oxadiazol-2-yl)-5-oxa-2-azaspiro[3.4]octane or (S)-7-(4-(5-fluoro-2-(((R)-tetrahydro-2H-pyran-3-yl)oxy)phenyl)piperidin-1-yl)-2-(1,3,4-oxadiazol-2-yl)-5-oxa-2-azaspiro[3.4]octane]
56 | 6.07 | Fc1ccc(O[C@H]2CCCOC2)c(C2CCN([C@@H]3COC4(C3)CN(c3nnco3)C4)CC2)c1 (single isomer, unassigned) [Example 2R, (S)-7-(4-(5-fluoro-2-(((S)-tetrahydro-2H-pyran-3-yl)oxy)phenyl)piperidin-1-yl)-2-(1,3,4-oxadiazol-2-yl)-5-oxa-2-azaspiro[3.4]octane or (S)-7-(4-(5-fluoro-2-(((R)-tetrahydro-2H-pyran-3-yl)oxy)phenyl)piperidin-1-yl)-2-(1,3,4-oxadiazol-2-yl)-5-oxa-2-azaspiro[3.4]octane]
31 | 5.78 | CC(C)(O)[C@H]1C[C@H](Oc2ccc(F)cc2C2CCN([C@@H]3COC4(C3)CN(c3nnco3)C4)CC2)C1 (single isomer, unassigned) [Example 2V, 2-((1S,3r)-3-(2-(1-((S)-2-(1,3,4-oxadiazol-2-yl)-5-oxa-2-azaspiro[3.4]octan-7-yl)piperidin-4-yl)-4-fluorophenoxy)cyclobutyl)propan-2-ol or 2-((1R,3s)-3-(2-(1-((S)-2-(1,3,4-oxadiazol-2-yl)-5-oxa-2-azaspiro[3.4]octan-7-yl)piperidin-4-yl)-4-fluorophenoxy)cyclobutyl)propan-2-ol]
66 | 5.46 | CC(C)(O)[C@H]1C[C@H](Oc2ccc(F)cc2C2CCN([C@@H]3COC4(C3)CN(c3nnco3)C4)CC2)C1 (single isomer, unassigned) [Example 2W, 2-((1S,3r)-3-(2-(1-((S)-2-(1,3,4-oxadiazol-2-yl)-5-oxa-2-azaspiro[3.4]octan-7-yl)piperidin-4-yl)-4-fluorophenoxy)cyclobutyl)propan-2-ol or 2-((1R,3s)-3-(2-(1-((S)-2-(1,3,4-oxadiazol-2-yl)-5-oxa-2-azaspiro[3.4]octan-7-yl)piperidin-4-yl)-4-fluorophenoxy)cyclobutyl)propan-2-ol]
51 | 4.97 | C[C@H](Oc1ccc(F)cc1C1CCN([C@@H]2COC3(C2)CN(c2nnco2)C3)CC1)C1CCOCC1 (single isomer, unassigned) [Example 2Y, (S)-7-(4-(5-fluoro-2-((S)-1-(tetrahydro-2H-pyran-4-yl)ethoxy)phenyl)piperidin-1-yl)-2-(1,3,4-oxadiazol-2-yl)-5-oxa-2-azaspiro[3.4]octane or (S)-7-(4-(5-fluoro-2-((R)-1-(tetrahydro-2H-pyran-4-yl)ethoxy)phenyl)piperidin-1-yl)-2-(1,3,4-oxadiazol-2-yl)-5-oxa-2-azaspiro[3.4]octane]
